Assay results as given in patent US9663464B2, “Carbazole derivatives acting on 5-HT7 receptor” (KOREA INSTITUTE OF SCIENCE AND TECHNOLOGY, priority 2015, dated 2017).
Counter-ions that a name gives are not always drawn.

Experiments:
[1] = molecular target: T1, human gene recombinant 5-HT7 receptor expressed in CHO cells (Homo sapiens, UniProt P34969); assay: Binding affinity for the 5-HT7 serotonin receptor ([3H]LSD radioligand)
T1 construct: expressed in transfected cells; host or cells: CHO cells (membrane preparation)
T1 sequence (P34969 whole entry): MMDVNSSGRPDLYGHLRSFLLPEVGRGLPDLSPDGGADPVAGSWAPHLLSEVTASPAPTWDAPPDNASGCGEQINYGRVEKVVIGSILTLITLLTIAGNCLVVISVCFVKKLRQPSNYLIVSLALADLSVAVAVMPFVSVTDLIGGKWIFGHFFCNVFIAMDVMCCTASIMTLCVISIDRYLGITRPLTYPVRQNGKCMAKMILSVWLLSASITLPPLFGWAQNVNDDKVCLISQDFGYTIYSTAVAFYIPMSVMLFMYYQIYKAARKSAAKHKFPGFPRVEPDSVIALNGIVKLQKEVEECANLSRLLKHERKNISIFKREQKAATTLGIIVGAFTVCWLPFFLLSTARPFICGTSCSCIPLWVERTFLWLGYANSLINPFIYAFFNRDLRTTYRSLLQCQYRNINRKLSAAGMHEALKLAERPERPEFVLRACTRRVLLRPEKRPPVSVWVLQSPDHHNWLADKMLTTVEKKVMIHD
Description: In this example, the human gene recombinant 5-HT7 receptor expressed in CHO cells was used. 1 nM [^3H]LSD, 5-HT7 receptor membrane (15 μg/well), a test drug, 10 mM MgCl2, 50 mM Tris-HCl buffer (pH 7.4) containing 0.1 mM EDTA, etc. were added to a vessel until the final volume reached 0.25 ml. The test drug was used at various concentrations. The mixture was cultured at 25° C. for 90 min. The culture was rapidly filtered through a Whatman GF/C glass fiber filter, which had been previously wetted with 0.3% polyethyleneimine using a Brandel harvester, to quench the reaction. The reaction mixture was washed with cold 50 mM Tris-HCl buffer. The filter was covered with MeltiLex, sealed in a sample bag, and dried in an oven. Counting was performed using MicroBeta (Wallac) and nonspecific binding was measured in the presence of […]. The K value of the test drug was obtained from nonlinear regression analysis (GraphPad Prism Program, San Diego, USA) of isotherms obtained by repeatedly performing the experiment on the drug at 10-11 stage concentrations in two test tubes (each twice).
The % inhibition values of the inventive compounds having different Y structures at a concentration of 10 μM against the 5-HT7 serotonin receptor were measured. Further, the binding affinity (Ki) values of the inventive compounds having different Y structures at a concentration of 10 μM for the 5-HT7 serotonin receptor were measured.

Rats = assay: Antagonism against migraine: leakage of fluorescent protein (FITC-BSA) from meningeal vessels; assay type: in vivo; conditions: for protein leakage vs reference value: 5 mg/kg to 20 mg/kg
Description: It is known that inflammatory proteins leaked from meningeal vessels by 5-HT are implicated in causing migraine. The amount of the proteins leaked in the presence of the compound of Example 2.10 was measured and the preventive effect of the compound on migraine was assessed by a partial modification of the method described in the literature [Rachel A. Spokes, Vicki C. Middlefell, European Journal of Pharmacology (1995) 281, 75-79]. SB-269970, which is known as a 5-HT7 receptor antagonizing compound (J. Med. Chem. (2000) 43, 342-345), was used as a comparative compound. A negative control free of […] was prepared. The fluorescence intensity of the negative control was defined as a reference value. As a positive control, physiological saline was added instead of the compound of Example 2-10.
Rats (350-450 g) were administered urethane (1.5 g/kg) intraperitoneally. 50 mg/kg of a fluorescent protein (FITC-BSA) was administered intravenously through a cannula introduced into the saphenous vein, and 1 μM […] was administered intravenously. SB-269970 and the compound of Example 2.10 were administered intraperitoneally. The cerebral lobes were separated and the meninges were drawn from each rat. The meninges were allowed to stand at 37° C. for 16 h in the presence of physiological saline at pH 11, followed by centrifugation. The supernatant was plated on plates. The fluorescence intensity was measured using a fluorescence leader (excitation wavelength 485 nm, […] wavelength 530 nm) and the meninges were weighed. The fluorescence intensity per mg of the meningeal proteins was calculated.

5-HT1E = 5-HT1E (Homo sapiens, UniProt P28566); assay: 5-HT1E receptor inhibition (Table 1); assay type: binding
Chain of 5-HT1E (P28566 whole entry, species assumed): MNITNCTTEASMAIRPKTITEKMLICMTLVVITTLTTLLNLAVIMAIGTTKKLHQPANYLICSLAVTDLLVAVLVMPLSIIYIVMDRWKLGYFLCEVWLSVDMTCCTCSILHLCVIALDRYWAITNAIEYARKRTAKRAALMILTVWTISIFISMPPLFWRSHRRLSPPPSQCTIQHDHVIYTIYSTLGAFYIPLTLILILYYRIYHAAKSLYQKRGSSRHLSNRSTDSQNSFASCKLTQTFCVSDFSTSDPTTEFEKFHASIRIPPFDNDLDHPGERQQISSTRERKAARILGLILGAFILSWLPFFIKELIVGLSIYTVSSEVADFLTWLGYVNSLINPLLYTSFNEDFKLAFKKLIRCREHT

5-HT2C = molecular target: T2, 5-HT2C (Homo sapiens, UniProt P28335); assay: 5-HT2C receptor inhibition/binding (Tables 1-3)
T2 sequence (P28335 33-458): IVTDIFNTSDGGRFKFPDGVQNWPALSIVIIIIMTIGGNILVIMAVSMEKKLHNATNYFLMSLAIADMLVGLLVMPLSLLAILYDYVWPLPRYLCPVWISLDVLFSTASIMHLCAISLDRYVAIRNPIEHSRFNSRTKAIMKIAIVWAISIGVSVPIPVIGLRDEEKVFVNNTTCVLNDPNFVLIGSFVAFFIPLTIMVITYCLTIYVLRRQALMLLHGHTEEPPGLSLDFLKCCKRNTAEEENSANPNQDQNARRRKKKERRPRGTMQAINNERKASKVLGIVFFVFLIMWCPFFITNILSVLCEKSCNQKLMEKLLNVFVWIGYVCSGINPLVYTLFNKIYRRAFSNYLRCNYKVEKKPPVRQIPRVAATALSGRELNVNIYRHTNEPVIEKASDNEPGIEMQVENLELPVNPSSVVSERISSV

5-HT6 = 5-HT6 (Homo sapiens, UniProt P50406); assay: 5-HT6 receptor inhibition/binding (Tables 2-3)
Chain of 5-HT6 (P50406 whole entry, species assumed): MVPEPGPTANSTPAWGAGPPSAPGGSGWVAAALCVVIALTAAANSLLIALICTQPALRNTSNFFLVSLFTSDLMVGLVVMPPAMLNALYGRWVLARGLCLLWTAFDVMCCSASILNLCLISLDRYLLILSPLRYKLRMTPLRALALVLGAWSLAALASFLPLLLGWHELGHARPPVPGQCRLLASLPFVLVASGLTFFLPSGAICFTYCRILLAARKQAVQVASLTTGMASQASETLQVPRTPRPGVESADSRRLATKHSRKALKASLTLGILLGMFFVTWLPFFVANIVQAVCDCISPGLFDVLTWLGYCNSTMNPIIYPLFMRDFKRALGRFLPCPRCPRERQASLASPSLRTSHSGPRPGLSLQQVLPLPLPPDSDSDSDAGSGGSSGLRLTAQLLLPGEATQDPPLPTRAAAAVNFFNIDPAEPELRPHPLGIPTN

5-HT1A = molecular target: T3, 5-HT1A (Homo sapiens, UniProt P08908); assay: 5-HT1A receptor inhibition (Table 3); assay type: binding
T3 sequence (P08908 1-422): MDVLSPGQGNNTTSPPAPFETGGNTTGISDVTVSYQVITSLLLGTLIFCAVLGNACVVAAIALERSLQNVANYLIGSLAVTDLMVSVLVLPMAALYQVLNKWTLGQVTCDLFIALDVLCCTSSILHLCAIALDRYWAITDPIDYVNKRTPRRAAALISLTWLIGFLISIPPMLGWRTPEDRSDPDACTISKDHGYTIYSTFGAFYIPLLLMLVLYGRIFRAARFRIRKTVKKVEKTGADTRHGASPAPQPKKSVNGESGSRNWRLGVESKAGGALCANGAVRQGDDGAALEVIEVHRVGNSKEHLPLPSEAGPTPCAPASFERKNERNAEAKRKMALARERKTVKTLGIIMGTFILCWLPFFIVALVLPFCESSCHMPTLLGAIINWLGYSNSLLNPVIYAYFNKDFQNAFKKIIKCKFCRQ

Row | SMILES | inhibition at 10 µM [1] [%] | inhibition at 10 µM (5-HT1E) [%] | Ki (5-HT2C) [nM] | inhibition at 10 µM (5-HT2C) [%] | inhibition at 10 µM (5-HT6) [%] | Ki [1] [nM] | inhibition at 10 µM (5-HT1A) [%] | protein leakage vs reference value (Rats) | Ki (5-HT6) [nM] | amount of the proteins leaked (meningeal fluorescence intensity) vs reference value (Rats; intraperitoneal, 3 mg/kg) | amount of the proteins leaked (meningeal fluorescence intensity) (Rats; intraperitoneal, 10 mg/kg) | amount of the proteins leaked (meningeal fluorescence intensity) vs reference value (Rats; intraperitoneal, 30 mg/kg)
1 | CC1CCN(CCCCCC(=O)n2c3ccccc3c3ccccc32)CC1 [Example 2.4, 1-(9H-carbazol-9-yl)-6-(4-methylpiperidin-1-yl)hexan-1-one] | 94.2 | -11.6 | 878 | 78.5 | – | – | – | suppressed to a level close to the reference value | – | – | – | –
2 | O=C(CCCCCN1CCC(c2ccccc2)CC1)n1c2ccccc2c2ccccc21 [Example 2.9, 1-(9H-carbazol-9-yl)-6-(4-phenylpiperidin-1-yl)hexan-1-one hydrochloride] | 99.8 | – | 758 | 55.3 | 92.2 | 157 | – | suppressed to a level close to the reference value | 373 | – | – | –
3 | COc1ccccc1N1CCN(CCCCC(=O)n2c3ccccc3c3ccccc32)CC1 [Example 2.31, 1-(9H-carbazol-9-yl)-5-(4-(2-methoxyphenyl)piperazin-1-yl)pentan-1-one hydrochloride] | 99.6 | – | – | 62.6 | 44.4 | 30 | 103 | suppressed to a level close to the reference value | – | – | – | –
4 | CC1CCN(CC[C@H]2CCCN2S(=O)(=O)c2cccc(O)c2)CC1 [SB-269970, reference compound] | – | – | – | – | – | – | – | – | – | – | reduced the amount of the proteins leaked | not lowered down to the reference value

Second part, led by results:

Row | inhibition at 10 µM [1] [%] | inhibition at 10 µM (5-HT1E) [%] | Ki (5-HT2C) [nM] | inhibition at 10 µM (5-HT2C) [%] | inhibition at 10 µM (5-HT6) [%] | Ki [1] [nM] | inhibition at 10 µM (5-HT1A) [%] | SMILES | protein leakage vs reference value (Rats) | Ki (5-HT6) [nM] | amount of the proteins leaked (meningeal fluorescence intensity) vs reference value (Rats; intraperitoneal, 3 mg/kg) | amount of the proteins leaked (meningeal fluorescence intensity) (Rats; intraperitoneal, 10 mg/kg) | amount of the proteins leaked (meningeal fluorescence intensity) vs reference value (Rats; intraperitoneal, 30 mg/kg)
5 | 103 | – | 683 | 70.4 | 91.9 | 252 | – | O=C(CCCCCN1CCC(Cc2ccccc2)CC1)n1c2ccccc2c2ccccc21 [Example 2.10, 6-(4-Benzylpiperidin-1-yl)-1-(9H-carbazol-9-yl)hexan-1-one hydrochloride] | – | 354 | effectively suppressed to a level close to the reference value | – | –
6 | 94.1 | – | – | 63.7 | 81.3 | 73 | 80.5 | O=C(CCCCCN1CCN(c2noc3ccccc23)CC1)n1c2ccccc2c2ccccc21 [Example 2.14, 6-(4-Benzo[d]isoxazol-3-yl)piperazin-1-yl)-1-(9H-carbazol-9-yl)hexan-1-one hydrochloride] | suppressed to a level close to the reference value | – | – | – | –
7 | 100 | – | – | 73.5 | 85.3 | 38 | 94.2 | O=C(CCCCCN1CCN(c2ccccc2O)CC1)n1c2ccccc2c2ccccc21 [Example 2.15, 1-(9H-carbazol-9-yl)-6-(4-(2-hydroxyphenyl)piperazin-1-yl)hexan-1-one] | suppressed to a level close to the reference value | – | – | – | –
8 | 95.8 | – | – | – | 77.8 | 55 | 103 | Oc1ccccc1N1CCN(CCCCn2c3ccccc3c3ccccc32)CC1 [Example 2.55, 2-(4-(4-(9H-carbazol-9-yl)butyl)piperazin-1-yl)phenol] | suppressed to a level close to the reference value | – | – | – | –
